Results published in ChEMBL document CHEMBL1201862, “PubChem BioAssay data set” (2004).
Each block holds one compound with its values, some of them ahead of it. Active and inactive are the calls of the source.

Legend:
Cysteine protease ATG4B = biological target: T1, Cysteine protease ATG4B (Homo sapiens, UniProt Q9Y4P1); type: functional;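 further: Fluorescence-based dose-response confirmation assay measuring inhibition of ATG4B activity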
T1 sequence (Q9Y4P1 whole entry): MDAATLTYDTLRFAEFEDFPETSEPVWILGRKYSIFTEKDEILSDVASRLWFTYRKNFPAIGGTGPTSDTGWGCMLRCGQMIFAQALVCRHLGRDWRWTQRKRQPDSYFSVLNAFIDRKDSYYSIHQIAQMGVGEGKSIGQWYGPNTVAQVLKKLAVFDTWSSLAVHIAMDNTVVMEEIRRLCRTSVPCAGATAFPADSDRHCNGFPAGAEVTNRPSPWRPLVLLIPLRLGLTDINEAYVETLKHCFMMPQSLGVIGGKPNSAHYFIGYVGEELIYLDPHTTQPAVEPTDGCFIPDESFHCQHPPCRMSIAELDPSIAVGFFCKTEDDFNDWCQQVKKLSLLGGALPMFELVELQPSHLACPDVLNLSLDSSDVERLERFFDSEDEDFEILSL

Phospholipase A2 = Phospholipase A2 (Homo sapiens, UniProt P04054); type: functional;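 further: confirmatory dose-response counterscreen on phospholipase A2, testing hits that came from an ultra-high-throughput screen for ATG4B inhibitors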
Chain of Phospholipase A2 (P04054 whole entry): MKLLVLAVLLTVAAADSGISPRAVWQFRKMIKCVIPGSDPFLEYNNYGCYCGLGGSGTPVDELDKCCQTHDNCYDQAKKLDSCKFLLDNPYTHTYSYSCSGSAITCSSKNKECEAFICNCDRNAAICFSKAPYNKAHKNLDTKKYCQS

[1] = biological target: T2, Zinc finger protein mex-5 (Caenorhabditis elegans, UniProt Q9XUB2); test: potency of MEX-5 RNA-binding blockers – biochemical, C. elegans, fluorescence polarization, dose response (AID 1960)
T2 sequence (Q9XUB2 whole entry): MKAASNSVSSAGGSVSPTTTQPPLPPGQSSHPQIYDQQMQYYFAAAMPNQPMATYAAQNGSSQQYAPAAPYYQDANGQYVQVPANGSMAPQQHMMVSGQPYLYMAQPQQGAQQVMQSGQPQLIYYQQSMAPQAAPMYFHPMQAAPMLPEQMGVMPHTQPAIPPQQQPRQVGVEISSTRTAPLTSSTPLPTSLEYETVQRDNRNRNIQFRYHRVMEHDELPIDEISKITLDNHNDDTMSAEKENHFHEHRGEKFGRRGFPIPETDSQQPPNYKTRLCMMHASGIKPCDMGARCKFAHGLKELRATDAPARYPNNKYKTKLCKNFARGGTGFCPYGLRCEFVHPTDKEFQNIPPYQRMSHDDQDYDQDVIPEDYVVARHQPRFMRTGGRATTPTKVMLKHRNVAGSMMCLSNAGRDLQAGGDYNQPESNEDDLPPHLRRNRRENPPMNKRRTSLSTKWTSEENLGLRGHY

Prothrombin = Prothrombin (Bos taurus, UniProt P00735); test: thrombin protease inhibitors – biochemical, fluorescence polarization, uHTS hits, dose response (AID 602369); type: functional
[2] = biological target: 72 kDa type IV collagenase (Homo sapiens, UniProt P08253); test: Dose Response validation of uHTS RPN11 inhibitor hits using a MMP-2 Fluorescence assay.; type: functional
Chain of 72 kDa type IV collagenase (P08253 whole entry, the tested form may be a part): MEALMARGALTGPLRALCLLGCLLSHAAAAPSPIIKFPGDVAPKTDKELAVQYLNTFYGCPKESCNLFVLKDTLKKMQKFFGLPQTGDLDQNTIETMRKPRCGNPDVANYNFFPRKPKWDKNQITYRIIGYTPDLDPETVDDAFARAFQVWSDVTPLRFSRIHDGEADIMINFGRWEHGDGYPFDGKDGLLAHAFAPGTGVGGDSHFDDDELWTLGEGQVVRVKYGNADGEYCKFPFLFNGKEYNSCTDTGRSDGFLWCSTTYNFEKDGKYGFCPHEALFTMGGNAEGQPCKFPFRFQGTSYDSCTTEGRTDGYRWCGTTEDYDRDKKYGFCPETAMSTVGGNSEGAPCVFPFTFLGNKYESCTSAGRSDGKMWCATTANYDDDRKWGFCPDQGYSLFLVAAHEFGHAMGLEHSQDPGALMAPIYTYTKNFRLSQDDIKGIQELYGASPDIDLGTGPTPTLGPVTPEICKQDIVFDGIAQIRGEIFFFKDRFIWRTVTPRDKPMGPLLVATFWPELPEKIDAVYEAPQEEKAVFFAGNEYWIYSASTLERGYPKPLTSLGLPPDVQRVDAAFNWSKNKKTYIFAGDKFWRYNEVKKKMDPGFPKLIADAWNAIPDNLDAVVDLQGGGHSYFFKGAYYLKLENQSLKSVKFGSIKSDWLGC

[3] = biological target: T3, RNA-binding protein pos-1 (Caenorhabditis elegans, UniProt G5EF15); test: disruptors of C. elegans POS-1 RNA interaction – biochemical, fluorescence polarization, dose response (AID 1964);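 further: purified POS-1 fused to maltose binding protein made in E. coli; potency of compounds blocking POS-1 binding to fluorescent RNA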
T3 sequence (G5EF15 whole entry): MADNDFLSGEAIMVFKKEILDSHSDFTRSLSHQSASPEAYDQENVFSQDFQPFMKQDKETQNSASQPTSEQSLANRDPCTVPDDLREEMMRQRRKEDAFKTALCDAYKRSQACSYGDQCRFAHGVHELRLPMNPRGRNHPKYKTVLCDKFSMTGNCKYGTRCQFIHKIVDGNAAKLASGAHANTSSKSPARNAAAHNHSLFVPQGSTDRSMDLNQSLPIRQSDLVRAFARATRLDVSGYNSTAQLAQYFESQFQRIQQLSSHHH

[4] = biological target: 26S proteasome non-ATPase regulatory subunit 14 (Homo sapiens, UniProt O00487); test: inhibition of proteasome subunit RPN11 – biochemical, fluorescence polarization, uHTS hits, confirmation (AID 602368); type: functional
Chain of 26S proteasome non-ATPase regulatory subunit 14 (O00487 whole entry): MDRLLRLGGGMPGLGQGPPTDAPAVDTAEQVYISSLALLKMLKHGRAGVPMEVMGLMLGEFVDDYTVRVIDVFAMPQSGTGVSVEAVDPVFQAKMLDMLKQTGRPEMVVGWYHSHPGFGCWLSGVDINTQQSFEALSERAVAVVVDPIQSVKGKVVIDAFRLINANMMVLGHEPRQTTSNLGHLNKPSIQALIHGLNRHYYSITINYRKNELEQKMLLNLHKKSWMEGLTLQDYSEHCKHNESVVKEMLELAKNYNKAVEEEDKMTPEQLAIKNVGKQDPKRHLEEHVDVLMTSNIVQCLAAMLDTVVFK

Melanocortin receptor 4 = Melanocortin receptor 4 (Homo sapiens, UniProt P32245); type: functional, cell-based;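 further: Cell-based assay with luminescence read-out, confirmatory dose-response testing for agonist activity of biased ligands at MC4R; human U2OS cells with tagged receptor and beta-arrestin; potency of agonists that increase receptor coupling to beta-arrestin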
Chain of Melanocortin receptor 4 (P32245 whole entry): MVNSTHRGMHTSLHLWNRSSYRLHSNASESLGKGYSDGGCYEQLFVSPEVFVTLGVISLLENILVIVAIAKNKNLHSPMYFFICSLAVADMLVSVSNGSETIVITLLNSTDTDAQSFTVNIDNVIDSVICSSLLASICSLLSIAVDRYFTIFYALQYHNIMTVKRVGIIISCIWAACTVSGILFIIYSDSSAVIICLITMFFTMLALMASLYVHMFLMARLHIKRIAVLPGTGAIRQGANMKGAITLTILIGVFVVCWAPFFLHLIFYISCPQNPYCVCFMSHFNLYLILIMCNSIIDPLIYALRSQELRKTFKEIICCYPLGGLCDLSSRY

Genome polyprotein = Genome polyprotein (dengue virus type 2, UniProt P29990); test: flavivirus cap methylation enzyme inhibition – biochemical, confirmation dose response, primary screen (AID 588689); type: functional
Chain of Genome polyprotein (P29990 2492-3391 limits assumed): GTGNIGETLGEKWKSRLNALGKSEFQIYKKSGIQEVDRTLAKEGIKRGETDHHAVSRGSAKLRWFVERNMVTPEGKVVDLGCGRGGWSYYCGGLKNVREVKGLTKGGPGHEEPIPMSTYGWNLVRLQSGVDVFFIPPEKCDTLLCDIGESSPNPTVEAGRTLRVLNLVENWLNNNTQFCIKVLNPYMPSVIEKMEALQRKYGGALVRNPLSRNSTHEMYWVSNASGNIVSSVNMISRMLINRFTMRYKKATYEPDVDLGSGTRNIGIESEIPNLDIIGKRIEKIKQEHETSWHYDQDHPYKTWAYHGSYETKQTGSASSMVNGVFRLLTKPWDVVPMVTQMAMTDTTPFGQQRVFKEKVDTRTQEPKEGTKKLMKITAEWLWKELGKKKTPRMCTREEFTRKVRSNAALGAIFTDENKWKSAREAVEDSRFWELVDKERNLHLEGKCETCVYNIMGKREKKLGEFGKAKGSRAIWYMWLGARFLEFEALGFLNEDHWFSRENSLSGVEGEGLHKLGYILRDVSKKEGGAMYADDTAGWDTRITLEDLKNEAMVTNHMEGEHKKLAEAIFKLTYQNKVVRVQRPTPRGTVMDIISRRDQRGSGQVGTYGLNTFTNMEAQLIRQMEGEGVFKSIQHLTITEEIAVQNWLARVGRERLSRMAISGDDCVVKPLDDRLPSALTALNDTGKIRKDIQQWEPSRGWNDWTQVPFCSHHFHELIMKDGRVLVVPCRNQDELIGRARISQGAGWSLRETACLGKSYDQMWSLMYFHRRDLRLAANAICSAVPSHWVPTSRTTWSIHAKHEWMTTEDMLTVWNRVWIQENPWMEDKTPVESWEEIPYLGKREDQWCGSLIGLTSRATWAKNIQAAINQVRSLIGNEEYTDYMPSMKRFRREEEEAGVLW

[5] = biological target: Induced myeloid leukemia cell differentiation protein Mcl-1 (Homo sapiens, UniProt Q07820); type: functional
Chain of Induced myeloid leukemia cell differentiation protein Mcl-1 (Q07820 whole entry): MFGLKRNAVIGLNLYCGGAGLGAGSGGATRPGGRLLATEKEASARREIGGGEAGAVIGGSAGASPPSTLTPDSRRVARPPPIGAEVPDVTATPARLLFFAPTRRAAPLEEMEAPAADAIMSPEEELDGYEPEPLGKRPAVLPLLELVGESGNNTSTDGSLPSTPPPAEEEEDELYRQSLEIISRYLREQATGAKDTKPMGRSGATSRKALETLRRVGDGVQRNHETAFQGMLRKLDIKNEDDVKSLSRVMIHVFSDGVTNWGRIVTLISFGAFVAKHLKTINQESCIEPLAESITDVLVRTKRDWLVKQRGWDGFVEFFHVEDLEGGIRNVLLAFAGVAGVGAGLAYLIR

HEK293 [6] = test: NOD2 signaling inhibitors in MDP-stimulated cells, cell-based, uHTS, luminescence (AID 2001); type: functional; conditions: Homo sapiens
HEK293 [7] = test: cells; type: functional, cell-based; conditions: Homo sapiens
HEK293 [8] = test: inhibition of NOD1-driven NF-kB reporter – cell-based, luminescence, uHTS, primary screen (AID 1578); type: functional; conditions: Homo sapiens
HEK293 [9] = test: cells; type: functional, cell-based; conditions: Homo sapiens; remark: listed apart in the source
Cytochrome P450 3A4 = Cytochrome P450 3A4 (Homo sapiens, UniProt P08684);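 further: CYP3A4 tested as one member of a cytochrome P450 panel screen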
Chain of Cytochrome P450 3A4 (P08684 whole entry): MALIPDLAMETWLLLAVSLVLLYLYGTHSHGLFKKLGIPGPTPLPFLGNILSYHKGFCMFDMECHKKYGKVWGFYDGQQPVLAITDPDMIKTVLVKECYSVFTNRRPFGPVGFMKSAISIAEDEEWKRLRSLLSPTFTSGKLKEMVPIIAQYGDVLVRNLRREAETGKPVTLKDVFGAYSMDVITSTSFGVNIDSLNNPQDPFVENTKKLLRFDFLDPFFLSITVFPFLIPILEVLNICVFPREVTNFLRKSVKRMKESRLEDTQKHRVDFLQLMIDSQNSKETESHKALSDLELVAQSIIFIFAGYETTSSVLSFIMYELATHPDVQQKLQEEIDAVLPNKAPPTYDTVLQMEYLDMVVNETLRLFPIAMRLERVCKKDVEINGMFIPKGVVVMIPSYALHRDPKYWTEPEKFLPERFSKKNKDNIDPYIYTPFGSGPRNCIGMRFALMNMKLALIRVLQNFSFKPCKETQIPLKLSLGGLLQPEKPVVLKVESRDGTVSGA

Cytochrome P450 1A2 = biological target: T4, Cytochrome P450 1A2 (Homo sapiens, UniProt P05177);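 further: PubChem cytochrome P450 panel assay, CYP1A2 panel member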
T4 sequence (P05177 whole entry): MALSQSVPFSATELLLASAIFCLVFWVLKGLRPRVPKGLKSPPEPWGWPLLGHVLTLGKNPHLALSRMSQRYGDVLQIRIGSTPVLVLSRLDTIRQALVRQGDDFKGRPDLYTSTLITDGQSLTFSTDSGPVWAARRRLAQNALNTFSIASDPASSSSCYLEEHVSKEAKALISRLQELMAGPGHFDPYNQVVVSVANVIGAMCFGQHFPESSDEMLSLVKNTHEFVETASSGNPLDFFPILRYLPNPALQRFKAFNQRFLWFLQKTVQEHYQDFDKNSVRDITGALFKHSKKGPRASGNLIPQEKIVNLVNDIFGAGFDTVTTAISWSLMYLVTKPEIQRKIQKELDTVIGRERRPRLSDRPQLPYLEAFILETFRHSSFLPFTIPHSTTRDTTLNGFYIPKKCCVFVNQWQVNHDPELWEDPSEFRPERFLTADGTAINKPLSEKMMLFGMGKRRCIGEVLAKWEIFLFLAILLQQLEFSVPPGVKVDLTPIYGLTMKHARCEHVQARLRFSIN

[10] = biological target: T5, Corticotropin-releasing factor receptor 2/Corticotropin-releasing factor-binding protein (Homo sapiens, UniProt P24387+Q13324); test: activators of CRF receptor 2 with binding protein – uHTS hits, confirmation (AID 602473); type: functional; conditions: read-out: EC50_Mean
T5 sequence (Q13324 whole entry): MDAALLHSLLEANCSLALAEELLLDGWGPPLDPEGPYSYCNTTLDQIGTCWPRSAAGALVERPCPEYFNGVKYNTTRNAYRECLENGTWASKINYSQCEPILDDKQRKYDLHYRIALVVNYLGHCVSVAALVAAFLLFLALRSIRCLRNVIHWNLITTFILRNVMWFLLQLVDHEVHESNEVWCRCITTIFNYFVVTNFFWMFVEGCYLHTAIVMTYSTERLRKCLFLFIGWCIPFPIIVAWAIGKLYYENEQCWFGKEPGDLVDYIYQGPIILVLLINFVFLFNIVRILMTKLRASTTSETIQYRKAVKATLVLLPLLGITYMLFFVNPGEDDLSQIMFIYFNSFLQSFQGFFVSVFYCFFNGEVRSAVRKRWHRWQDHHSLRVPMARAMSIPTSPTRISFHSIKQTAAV
T5 sequence (P24387 whole entry): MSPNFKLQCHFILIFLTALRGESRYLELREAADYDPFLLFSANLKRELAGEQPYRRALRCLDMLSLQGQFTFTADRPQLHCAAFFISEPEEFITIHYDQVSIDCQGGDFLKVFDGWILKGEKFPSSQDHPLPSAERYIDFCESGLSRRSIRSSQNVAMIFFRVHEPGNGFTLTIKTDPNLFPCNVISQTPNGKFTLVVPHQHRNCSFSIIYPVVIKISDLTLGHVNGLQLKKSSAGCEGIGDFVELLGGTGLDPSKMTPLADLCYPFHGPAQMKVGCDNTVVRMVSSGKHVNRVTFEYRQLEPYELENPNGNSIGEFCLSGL

Cytochrome P450 2D6 = Cytochrome P450 2D6 (Homo sapiens, UniProt P10635);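 further: CYP2D6 member of a cytochrome P450 panel assay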
Chain of Cytochrome P450 2D6 (P10635 whole entry): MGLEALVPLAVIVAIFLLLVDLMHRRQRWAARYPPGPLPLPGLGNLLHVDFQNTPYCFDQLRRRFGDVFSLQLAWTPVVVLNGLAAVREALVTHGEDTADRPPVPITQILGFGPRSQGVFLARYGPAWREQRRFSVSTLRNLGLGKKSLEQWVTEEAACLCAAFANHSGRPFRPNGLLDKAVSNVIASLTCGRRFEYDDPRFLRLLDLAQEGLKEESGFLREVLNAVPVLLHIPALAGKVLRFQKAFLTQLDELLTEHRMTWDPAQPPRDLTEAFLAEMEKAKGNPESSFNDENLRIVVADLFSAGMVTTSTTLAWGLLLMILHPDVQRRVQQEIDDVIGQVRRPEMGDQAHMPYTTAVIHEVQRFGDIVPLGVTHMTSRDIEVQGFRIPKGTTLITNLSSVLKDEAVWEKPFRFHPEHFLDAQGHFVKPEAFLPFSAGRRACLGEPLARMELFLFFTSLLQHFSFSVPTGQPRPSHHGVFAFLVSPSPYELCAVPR

[11] = biological target: T5, Corticotropin-releasing factor receptor 2/Corticotropin-releasing factor-binding protein; test: Dose Response confirmation of uHTS hits for small molecule antagonists of the CRF-binding protein and CRF-R2 receptor complex.; type: functional; conditions: read-out: IC50_Mean
[12] = blockers of CRF-binding protein–CRF-R2 complex – cell-based, uHTS hits, 384-well, dose response (AID 651639); type: functional, Homo sapiens; conditions: read-out: IC50_Mean
[13] = Luminescence Cell-Based Dose Confirmation HTS to Identify Inhibitors of Platelet Dense Granule Release. [Related pubchem assays: 1663 (Primary HTS), 1678 (Summary of Project)]; type: functional
[14] = biological target: Luciferin 4-monooxygenase (Photinus pyralis, UniProt P08659); test: inhibition of purified Photinus pyralis luciferase – biochemical, luminescence, dose response (AID 1891)
Chain of Luciferin 4-monooxygenase (P08659 whole entry): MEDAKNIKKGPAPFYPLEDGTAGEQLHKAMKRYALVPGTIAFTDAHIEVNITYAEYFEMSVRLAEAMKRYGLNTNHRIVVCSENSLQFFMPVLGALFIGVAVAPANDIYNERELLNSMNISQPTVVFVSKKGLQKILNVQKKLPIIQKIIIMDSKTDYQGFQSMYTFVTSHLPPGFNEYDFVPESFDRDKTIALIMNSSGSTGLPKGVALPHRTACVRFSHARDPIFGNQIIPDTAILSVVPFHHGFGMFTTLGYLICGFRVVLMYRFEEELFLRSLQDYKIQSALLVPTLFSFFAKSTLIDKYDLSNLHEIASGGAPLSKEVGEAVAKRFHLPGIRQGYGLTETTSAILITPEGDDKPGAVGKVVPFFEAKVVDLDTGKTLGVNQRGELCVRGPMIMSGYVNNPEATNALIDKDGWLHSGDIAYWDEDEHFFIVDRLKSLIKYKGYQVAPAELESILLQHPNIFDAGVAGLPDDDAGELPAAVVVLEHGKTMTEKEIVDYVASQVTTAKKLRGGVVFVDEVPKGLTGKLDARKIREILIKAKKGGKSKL

Cytochrome P450 2C9 = Cytochrome P450 2C9 (Homo sapiens, UniProt P11712)
[15] = biological target: T6, Probable nicotinate-nucleotide adenylyltransferase (Staphylococcus aureus (strain N315), UniProt P65502); type: functional, Staphylococcus aureus subsp. aureus N315; conditions: read-out: IC50_Mean;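 on IC50 Mean: confirmatory dose-response retesting of NadD inhibitor hits first found in an ultra-high-throughput screen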
[16] = biological target: T6, Probable nicotinate-nucleotide adenylyltransferase; type: functional, Staphylococcus aureus subsp. aureus N315
[17] = biological target: Dual specificity tyrosine-phosphorylation-regulated kinase 1A (Rattus norvegicus, UniProt Q63470); type: biochemical, Homo sapiens
[18] = biological target: T7, Polyadenylate-binding protein 1 (Homo sapiens, UniProt P11940); test: MLLE domain peptide-binding blockers, IC50 – biochemical, fluorescence polarization, FITC-PAM2 peptide, dose response (AID 602259); type: functional; conditions: read-out: IC50_Mean
T7 sequence (P11940 whole entry, the tested form may be a part): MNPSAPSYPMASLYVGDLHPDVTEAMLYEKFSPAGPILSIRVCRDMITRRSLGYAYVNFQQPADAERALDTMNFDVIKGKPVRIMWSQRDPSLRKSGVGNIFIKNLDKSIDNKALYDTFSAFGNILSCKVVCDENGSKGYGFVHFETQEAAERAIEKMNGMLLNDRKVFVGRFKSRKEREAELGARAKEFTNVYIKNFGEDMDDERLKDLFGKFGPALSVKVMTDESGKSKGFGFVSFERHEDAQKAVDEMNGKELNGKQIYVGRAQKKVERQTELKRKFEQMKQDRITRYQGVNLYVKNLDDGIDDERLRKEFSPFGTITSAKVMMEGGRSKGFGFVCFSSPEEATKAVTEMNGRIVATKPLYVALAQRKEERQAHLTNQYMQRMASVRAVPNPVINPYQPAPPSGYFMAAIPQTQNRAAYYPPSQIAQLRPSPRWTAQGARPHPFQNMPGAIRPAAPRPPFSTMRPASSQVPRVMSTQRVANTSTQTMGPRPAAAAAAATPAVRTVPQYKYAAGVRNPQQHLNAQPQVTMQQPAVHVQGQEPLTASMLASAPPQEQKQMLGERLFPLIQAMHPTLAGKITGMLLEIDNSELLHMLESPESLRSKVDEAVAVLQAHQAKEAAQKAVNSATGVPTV

[19] = biological target: T7, Polyadenylate-binding protein 1; test: MLLE binding blockers, Cy5 peptide tracer – biochemical, fluorescence polarization, Cy5-PAM2 peptide, secondary, miRNA deadenylation inhibitor project, dose response (AID 602260); type: functional; conditions: read-out: IC50_Mean

IC50 (Cysteine protease ATG4B): 29.9 µM (inactive)
IC50 (Phospholipase A2): 16.8 µM (active)
Compound: Cc1ccccc1S(=O)(=O)Nc1nc2ccccc2nc1N1CCc2ccccc2C1

EC50 [1]: 10.1 µM (inconclusive)
IC50 (Prothrombin): 36.3 µM (active)
IC50 [2]: > 100 µM (inactive)
EC50 [3]: > 300 µM (not active)
IC50 [4]: 23.5 µM (active)
Compound: COc1ccccc1N1C(=O)S/C(=C\c2ccc(C)s2)C1=O

EC50 (Melanocortin receptor 4): > 89.2 µM (inactive)
Compound: Cc1cc(C)c(CN2CCN(CCCn3cnc(C(=O)Nc4ccc(C)c(C)c4)n3)CC2)c(C)c1

Compound: CC(/C=C1\SC(=S)N(c2ccc(C(=O)O)cc2)C1=O)=C\c1ccccc1
IC50 (Genome polyprotein): 33.7 µM (active)
IC50 [5]: 3.09 µM (active)
IC50 (HEK293 [6]): 5.93 µM (active)
IC50 (HEK293 [7]): > 20 µM (inactive)
EC50 (HEK293 [8]): 8.26 µM (active)
IC50 (HEK293 [9]): 4.09 µM (active)
IC50 (Cysteine protease ATG4B): 5.25 µM (active)
IC50 (Phospholipase A2): 1.88 µM (active)

AC50 (Cytochrome P450 3A4): 17.8 µM (inconclusive)
AC50 (Cytochrome P450 1A2): 8.91 µM (inconclusive)
EC50 [10]: > 53 µM (inactive)
AC50 (Cytochrome P450 2D6): 25.1 µM (inconclusive)
IC50 [11]: 9.86 µM (active)
IC50 [12]: 16 µM (active)
Compound: O=C1CC(c2cccc(F)c2)SC(N(c2ccccc2)c2ccccc2)=N1 (configuration not stated)

EC50 (Melanocortin receptor 4): > 89.2 µM (inactive)
Compound: O=C(NC(c1ccc(Cl)cc1)c1cccnc1)C1CCN(CCOc2ccc(Cl)cc2Cl)CC1 (configuration not stated)

EC50 (Melanocortin receptor 4): > 89.2 µM (inactive)
Compound: CCOc1ccc(NC(=O)CSc2nc(-c3cccs3)cc(C(F)(F)F)n2)c([N+](=O)[O-])c1

Compound: CCCCOc1ccccc1C1C(C(=O)OC)=CN(CC)C=C1C(=O)OC
EC50 [10]: > 53 µM (inactive)
IC50 [11]: 3.74 µM (active)
EC50 [13]: > 112 µM (not active)
IC50 [12]: 16 µM (active)
EC50 [14]: > 112 µM (not active)

EC50 [10]: > 53 µM (inactive)
AC50 (Cytochrome P450 2C9): 17.8 µM (inconclusive)
IC50 [11]: 8.51 µM (active)
IC50 [12]: > 20 µM (inactive)
Compound: COc1ccc(C(C(=O)NC2CCCCC2)N(C(=O)c2sc(C)nc2C)c2ccc(OC)cc2)cc1 (configuration not stated)

IC50 [15]: 31.6 µM (active)
IC50 [16]: 14.3 µM (active)
Compound: COc1ccc(Br)cc1CNC(=O)CN1C(=O)C(c2ccccc2)Oc2cccnc21 (configuration not stated)

IC50 [15]: 23.6 µM (active)
IC50 [16]: 7.43 µM (active)
Compound: O=C(CC1N=C2c3ccccc3N=C(SCc3ccc(Cl)cc3)N2C1=O)NCc1ccco1 (configuration not stated)

IC50 (Prothrombin): 19.5 µM (active)
IC50 [2]: > 100 µM (inactive)
IC50 [4]: 19.3 µM (active)
Compound: O=C(CCN1C(=O)NC2(CCCC2)C1=O)Nc1ccc(-c2nc3ccccc3s2)cc1

AC50 [17]: 24.6 µM (active)
IC50 (Genome polyprotein): 81.6 µM (active)
IC50 [18]: > 66 µM (inactive)
IC50 [19]: > 66 µM (inactive)
Compound: COC(=O)C1=C(C(=O)OC)C(c2cc(Br)ccc2O)c2sc(O)nc2S1 (configuration not stated)

Compound: Cc1ccc(OC(=O)N(C)C[C@@H]2OCc3cnnn3CCCC(=O)N([C@@H](C)CO)C[C@@H]2C)cc1
EC50 [10]: > 53 µM (inactive)
IC50 [11]: < 0.368 µM (active)
IC50 [12]: > 20 µM (inactive)
